Assays:
[1] = Change in blood sugar level after rectal administration of insulin solutions to rabbits; assay type: in vivo, rabbit (Japanese white male)
Experimental: Japanese white male rabbits weighing about 2.5 kg, fasted for 24 hours, were fixed at the back, and each of solutions shown in Table 1 was administered to the rectum of about 2.5 cm from the anus using a tube. Cannule was inserted into the femoral vein of the hind leg to collect about 0.2 ml each of blood in every fixed time interval. Blood sugar level was measured using destrostick. Change in blood sugar level was determined with the passage of time, as the blood sugar level prior to administration being rendered 100%.

[2] = Test of percutaneous absorption of indomethacin; assay type: in vivo, rabbit (Japanese white female); conditions: as compared to the comparative preparations
Experimental: Topical agents containing indometacin shown below were prepared and percutaneous absorption was examined with the topical agents.
Seven (7) Japanese white female rabbits weighing about 3 kg were used as one group. The topical agents of the present invention and the comparative preparations were applied onto the normal abdominal skin (10 cm×14 cm) of the rabbits in each group, from which the body hair was cut, respectively, at a dose corresponding to 20 mg of indomethacin. Blood was collected from the vein of the ear after 4, 10 and 20 hours and, blood concentration of indomethacin was measured.

[3] = test system: carrageenin caused edema; assay: Inhibition of carrageenin caused edema on the paw of the rat; assay type: in vivo, rat (Wistar male); conditions: as compared to the comparative preparation
Experimental: With respect to the topical agents of the present invention, the pharmacological effect was examined according to the inhibition of carrageenin caused edema on the paw of the rat.
Wistar male 10 rats, weighing about 110 g, were used as one group. The volume of the right rear paw of the rats in each group was previously measured using a branched glass container. A 1% carrageenin aqueous solution was subcutaneously injected to the right rear paw sole in a dose of 0.125 ml. Immediately thereafter 0.3 g of indomethacin topical agents were applied to the skin of the right rear paw sole. In the control group, carrageenin alone was injected. Then, the volume of the rear paw was measured every 90 minutes, which was continued until 6 hours after. The rate of edema and the inhibition rate of edema were calculated as described below. [formula]

[4] = Test for percutaneous absorption of methyl salicylate (cataplasms); assay type: in vivo, rabbit (Japanese white female); conditions: as compared to the cataplasm for comparison
Experimental: Cataplasms shown below were prepared and, the percutaneous absorption of methyl salicylate was tested.
Seven (7) Japanese white female rabbits weighing about 3 kg were used as one group. […] Blood was collected from the vein of the femur after 3, 6, 10, 20 and 30 hours and, blood concentration of methyl salicylate was measured.

[5] = 15 mins., this invention, ether derivative 0.1 g with insulin 10/kg, saline 0.65 g, ethanol 0.25 g
[6] = 30 mins., this invention, ether derivative 0.1 g with insulin 10/kg, saline 0.65 g, ethanol 0.25 g
[7] = 45 mins., this invention, ether derivative 0.1 g with insulin 10/kg, saline 0.65 g, ethanol 0.25 g
[8] = 60 mins., this invention, ether derivative 0.1 g with insulin 10/kg, saline 0.65 g, ethanol 0.25 g
[9] = 90 mins., this invention, ether derivative 0.1 g with insulin 10/kg, saline 0.65 g, ethanol 0.25 g
[10] = 120 mins., this invention, ether derivative 0.1 g with insulin 10/kg, saline 0.65 g, ethanol 0.25 g

## Insulin: Insulin 10/kg in 25% Ethanol solution (control of Table 1)
[1]; 15 mins., control, insulin 10/kg in 25% ethanol solution
  Rate of Change in Blood Sugar Level before Administration: +5.0%
[1]; 30 mins., control, insulin 10/kg in 25% ethanol solution
  Rate of Change in Blood Sugar Level before Administration: +12.9%
[1]; 45 mins., control, insulin 10/kg in 25% ethanol solution
  Rate of Change in Blood Sugar Level before Administration: +11.5%
[1]; 60 mins., control, insulin 10/kg in 25% ethanol solution
  Rate of Change in Blood Sugar Level before Administration: +4.8%
[1]; 90 mins., control, insulin 10/kg in 25% ethanol solution
  Rate of Change in Blood Sugar Level before Administration: +1.5%
[1]; 120 mins., control, insulin 10/kg in 25% ethanol solution
  Rate of Change in Blood Sugar Level before Administration: +2.7%

## 1-O-methyl-branched isostearyl-3-O-methyl-2-O-2',3'-dihydroxypropylglycerol
[1]; [5]
  Rate of Change in Blood Sugar Level before Administration: -17.8%
[1]; [6]
  Rate of Change in Blood Sugar Level before Administration: -18.3%
[1]; [7]
  Rate of Change in Blood Sugar Level before Administration: -24.5%
[1]; [8]
  Rate of Change in Blood Sugar Level before Administration: -28.6%
[1]; [9]
  Rate of Change in Blood Sugar Level before Administration: -21.9%
[1]; [10]
  Rate of Change in Blood Sugar Level before Administration: -19.8%

## CCCCCCCCCCCCOCC(COC)OCC(O)CO (stereo not drawn) [1-O-n-dodecyl-3-O-methyl-2-O-2',3'-dihydroxypropylglycerol]
[1]; 15 mins., control, ether derivative 1 g
  Rate of Change in Blood Sugar Level before Administration: +6.5%
[1]; 15 mins., this invention, ether derivative 0.05 g with insulin 10/kg, saline 0.70 g, ethanol 0.25 g
  Rate of Change in Blood Sugar Level before Administration: -13.4%
[1]; [5]
  Rate of Change in Blood Sugar Level before Administration: -19.2%
[1]; 30 mins., control, ether derivative 1 g
  Rate of Change in Blood Sugar Level before Administration: +10.2%
[1]; 30 mins., this invention, ether derivative 0.05 g with insulin 10/kg, saline 0.70 g, ethanol 0.25 g
  Rate of Change in Blood Sugar Level before Administration: -18.6%
[1]; [6]
  Rate of Change in Blood Sugar Level before Administration: -28.9%
[1]; 45 mins., control, ether derivative 1 g
  Rate of Change in Blood Sugar Level before Administration: +9.8%
[1]; 45 mins., this invention, ether derivative 0.05 g with insulin 10/kg, saline 0.70 g, ethanol 0.25 g
  Rate of Change in Blood Sugar Level before Administration: -25.2%
[1]; [7]
  Rate of Change in Blood Sugar Level before Administration: -32.7%
[1]; 60 mins., control, ether derivative 1 g
  Rate of Change in Blood Sugar Level before Administration: +9.5%
[1]; 60 mins., this invention, ether derivative 0.05 g with insulin 10/kg, saline 0.70 g, ethanol 0.25 g
  Rate of Change in Blood Sugar Level before Administration: -27.6%
[1]; [8]
  Rate of Change in Blood Sugar Level before Administration: -28.0%
[1]; 90 mins., control, ether derivative 1 g
  Rate of Change in Blood Sugar Level before Administration: +9.5%
[1]; 90 mins., this invention, ether derivative 0.05 g with insulin 10/kg, saline 0.70 g, ethanol 0.25 g
  Rate of Change in Blood Sugar Level before Administration: -25.8%
[1]; [9]
  Rate of Change in Blood Sugar Level before Administration: -19.5%
[1]; 120 mins., control, ether derivative 1 g
  Rate of Change in Blood Sugar Level before Administration: +10.2%
[1]; 120 mins., this invention, ether derivative 0.05 g with insulin 10/kg, saline 0.70 g, ethanol 0.25 g
  Rate of Change in Blood Sugar Level before Administration: -22.4%
[1]; [10]
  Rate of Change in Blood Sugar Level before Administration: -18.2%
[2]
  percutaneous absorption of indomethacin (in words): extremely high percutaneous absorption of indomethacin
[3]
  rate of preventing the edema / pharmacological effect of indomethacin (in words): extremely high pharmacological effect of indomethacin
[4]
  percutaneous absorption of methyl salicylate (in words): extremely high percutaneous absorption of methyl salicylate

Source: patent US4859696A, “Precutaneous absorption accelerator and preparation containing same” (Kao Corporation, priority 1984, dated 1989)
